Here are results for 1 molecule from publication PMC3608752 (Annals of neurology, 2013).

This assay addresses T1, PH20 hyaluronidase (bovine testicular hyaluronidase, BTH/PH20) (Bos taurus, UniProt Q2YDK3).
T1 sequence (Q2YDK3 36-553): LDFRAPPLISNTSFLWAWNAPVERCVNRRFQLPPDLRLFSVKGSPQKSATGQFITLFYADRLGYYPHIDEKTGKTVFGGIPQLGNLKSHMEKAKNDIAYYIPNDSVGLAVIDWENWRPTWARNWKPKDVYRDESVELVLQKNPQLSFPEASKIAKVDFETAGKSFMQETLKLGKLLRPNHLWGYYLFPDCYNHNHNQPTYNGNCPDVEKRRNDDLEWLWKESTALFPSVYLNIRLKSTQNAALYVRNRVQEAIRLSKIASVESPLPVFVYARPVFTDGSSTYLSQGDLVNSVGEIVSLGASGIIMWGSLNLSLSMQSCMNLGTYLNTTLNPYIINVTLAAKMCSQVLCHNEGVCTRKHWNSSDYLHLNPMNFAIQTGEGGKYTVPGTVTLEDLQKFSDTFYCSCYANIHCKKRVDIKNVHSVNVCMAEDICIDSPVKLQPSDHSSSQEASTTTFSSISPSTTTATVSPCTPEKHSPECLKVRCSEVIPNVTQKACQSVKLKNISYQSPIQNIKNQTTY
It counts as biochemical.

Molecule `CCCCCCCCCCCCCCCC(=O)OC[C@H](O)[C@H]1OC(=O)C(O)=C1O` [VCPAL, 6-O-Palmitoyl-L-ascorbic acid] had a concentration for half-maximal inhibition (IC50) of approximately 33 µM.

Usually IC50 stands for the midpoint of a concentration-inhibition curve. Read a high IC50 as weaker potency in that assay.
